ChEMBL document CHEMBL1139244, “Synthesis and antifungal activity of 1H-pyrrolo[3,2-g]quinoline-4,9-diones and 4,9-dioxo-4,9-dihydro-1H-benzo[f]indoles” (2009)
Values after ≈ are worked out from the molar mass of the structure shown.

Assays:
Assay type in all cases: functional
Aspergillus niger = assay: Antifungal activity against Aspergillus niger KCTC 1231 after 2 days; details: KCTC 1231, 48 h
Cryptococcus neoformans = assay: Antifungal activity against Cryptococcus neoformans KCCM 50564 after 1 day; details: KCCM 50564, 24 h
Candida albicans = assay: Antifungal activity against Candida albicans KCCM 50235 after 1 day; details: KCCM 50235, 24 h
Candida tropicalis = assay: Antifungal activity against Candida tropicalis KCCM 50662 after 1 day; details: KCCM 50662, 24 h
Pichia kudriavzevii = assay: Antifungal activity against Candida krusei KCCM 11655 after 1 day; details: KCCM 11655, 24 h

Compound	MIC (Aspergillus niger) [mg/L]	MIC (Cryptococcus neoformans) [mg/L]	MIC (Candida albicans) [mg/L]	MIC (Candida tropicalis) [mg/L]	MIC (Pichia kudriavzevii) [mg/L]
CCOC(=O)c1c2c(n(-c3ccc(O)cc3)c1N)C(=O)c1ncccc1C2=O	25 (≈ 66.3 µM)	12.5 (≈ 33.1 µM)	3.2 (≈ 8.48 µM)	0.6 (≈ 1.59 µM)	12.5 (≈ 33.1 µM)
Nc1ccc(O)c2ncccc12	> 100	100 (≈ 624 µM)	> 100	> 100	100 (≈ 624 µM)
CCOC(=O)c1c2c(n(-c3ccc(Cl)cc3)c1N)C(=O)c1ncccc1C2=O	6.3 (≈ 15.9 µM)	50 (≈ 126 µM)	> 100	3.2 (≈ 8.08 µM)	> 100
COC(=O)c1c2c(n(-c3ccc(OC)cc3)c1N)C(=O)c1ncccc1C2=O	50 (≈ 133 µM)	> 100	> 100	> 100	12.5 (≈ 33.1 µM)
CCOC(=O)c1c2c(n(-c3ccc(C)cc3)c1N)C(=O)c1ncccc1C2=O	25 (≈ 66.6 µM)	12.5 (≈ 33.3 µM)	> 100	3.2 (≈ 8.52 µM)	12.5 (≈ 33.3 µM)
CCOC(=O)c1c2c(n(-c3ccc(OC)cc3)c1N)C(=O)c1ncccc1C2=O	25 (≈ 63.9 µM)	50 (≈ 128 µM)	> 100	12.5 (≈ 31.9 µM)	> 100
COC(=O)c1c2c(n(-c3ccc(C)cc3)c1N)C(=O)c1ncccc1C2=O	> 100	12.5 (≈ 34.6 µM)	100 (≈ 277 µM)	100 (≈ 277 µM)	12.5 (≈ 34.6 µM)
CCOC(=O)c1c2c(n(-c3ccccc3)c1N)C(=O)c1ncccc1C2=O	50 (≈ 138 µM)	50 (≈ 138 µM)	> 100	6.3 (≈ 17.4 µM)	> 100
CCOC(=O)c1c2c(n(-c3ccc(I)cc3)c1N)C(=O)c1ncccc1C2=O	12.5 (≈ 25.7 µM)	25 (≈ 51.3 µM)	25 (≈ 51.3 µM)	3.2 (≈ 6.57 µM)	25 (≈ 51.3 µM)
CCOC(=O)c1c2c(n(-c3ccc(F)cc3)c1N)C(=O)c1ncccc1C2=O	50 (≈ 132 µM)	25 (≈ 65.9 µM)	> 100	6.3 (≈ 16.6 µM)	> 100
COC(=O)c1c2c(n(-c3ccccc3)c1N)C(=O)c1ncccc1C2=O	50 (≈ 144 µM)	> 100	> 100	> 100	50 (≈ 144 µM)
CCOC(=O)c1c2c(n(-c3ccc(F)c(F)c3)c1N)C(=O)c1ncccc1C2=O	25 (≈ 62.9 µM)	50 (≈ 126 µM)	1.6 (≈ 4.03 µM)	50 (≈ 126 µM)	25 (≈ 62.9 µM)
Cc1ccc(-n2c(N)c(C#N)c3c2C(=O)c2ccccc2C3=O)cc1	> 100	100 (≈ 305 µM)	> 100	> 100	3.2 (≈ 9.78 µM)
CCOC(=O)c1c2c(n(-c3ccc(Br)cc3)c1N)C(=O)c1ncccc1C2=O	50 (≈ 114 µM)	25 (≈ 56.8 µM)	50 (≈ 114 µM)	3.2 (≈ 7.27 µM)	> 100
OC(Cn1cncn1)(Cn1cncn1)c1ccc(F)cc1F [FLUCONAZOLE]	50 (≈ 163 µM)	50 (≈ 163 µM)	12.5 (≈ 40.8 µM)	6.3 (≈ 20.6 µM)	25 (≈ 81.6 µM)
CCn1c(N)c(C#N)c2c1C(=O)c1ccccc1C2=O	25 (≈ 94.2 µM)	12.5 (≈ 47.1 µM)	25 (≈ 94.2 µM)	25 (≈ 94.2 µM)	12.5 (≈ 47.1 µM)
N#Cc1c2c(n(-c3ccccc3)c1N)C(=O)c1ccccc1C2=O	> 100	100 (≈ 319 µM)	100 (≈ 319 µM)	100 (≈ 319 µM)	3.2 (≈ 10.2 µM)
CCOC(=O)c1c2c(n(-c3ccc(C(F)(F)F)cc3)c1N)C(=O)c1ncccc1C2=O	12.5 (≈ 29.1 µM)	12.5 (≈ 29.1 µM)	6.3 (≈ 14.7 µM)	0.8 (≈ 1.86 µM)	6.3 (≈ 14.7 µM)
Cn1c(N)c(C#N)c2c1C(=O)c1ccccc1C2=O	25 (≈ 99.5 µM)	12.5 (≈ 49.8 µM)	12.5 (≈ 49.8 µM)	6.3 (≈ 25.1 µM)	12.5 (≈ 49.8 µM)
Nc1nc(=O)[nH]cc1F [FLUCYTOSINE]	50 (≈ 387 µM)	12.5 (≈ 96.8 µM)	6.3 (≈ 48.8 µM)	12.5 (≈ 96.8 µM)	6.3 (≈ 48.8 µM)
